Measurements as given in the kinase profiling compilation of Christmann-Franck et al. (2016).

Experiments:
Test in all cases: KINOMEscan competition binding
Settings in all cases: compound 10.0 µM
ANKK1 (human) = ANKK1 (human) (UniProt Q8NFD2)
TAOK3 (human) = TAOK3 (human) (UniProt Q9H2K8)
[1] = test system: ABL1 (human), P00519 [M351T]
NEK7 (human) = NEK7 (human) (UniProt Q8TDX7)
SLK (human) = SLK (human) (UniProt Q9H2G2)
MAPK9 (human) = MAPK9 (human) (UniProt P45984)
EPHA8 (human) = EPHA8 (human) (UniProt P29322)
STK17A (human) = STK17A (human) (UniProt Q9UEE5)
CSNK1A1L (human) = CSNK1A1L (human) (UniProt Q8N752)
Chain of CSNK1A1L (human) (Q8N752 whole entry, looked up): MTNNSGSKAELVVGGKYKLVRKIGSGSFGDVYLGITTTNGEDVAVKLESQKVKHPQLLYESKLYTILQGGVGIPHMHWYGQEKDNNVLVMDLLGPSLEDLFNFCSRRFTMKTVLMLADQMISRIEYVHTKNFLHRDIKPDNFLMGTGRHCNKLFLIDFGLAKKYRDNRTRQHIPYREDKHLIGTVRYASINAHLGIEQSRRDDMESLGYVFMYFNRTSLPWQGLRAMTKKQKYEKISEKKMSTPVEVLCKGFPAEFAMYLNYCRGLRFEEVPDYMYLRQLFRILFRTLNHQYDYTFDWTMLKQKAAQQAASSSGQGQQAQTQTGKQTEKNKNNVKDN

MAPK8 (human) = MAPK8 (human) (UniProt P45983)
Chain of MAPK8 (human) (P45983 whole entry, looked up): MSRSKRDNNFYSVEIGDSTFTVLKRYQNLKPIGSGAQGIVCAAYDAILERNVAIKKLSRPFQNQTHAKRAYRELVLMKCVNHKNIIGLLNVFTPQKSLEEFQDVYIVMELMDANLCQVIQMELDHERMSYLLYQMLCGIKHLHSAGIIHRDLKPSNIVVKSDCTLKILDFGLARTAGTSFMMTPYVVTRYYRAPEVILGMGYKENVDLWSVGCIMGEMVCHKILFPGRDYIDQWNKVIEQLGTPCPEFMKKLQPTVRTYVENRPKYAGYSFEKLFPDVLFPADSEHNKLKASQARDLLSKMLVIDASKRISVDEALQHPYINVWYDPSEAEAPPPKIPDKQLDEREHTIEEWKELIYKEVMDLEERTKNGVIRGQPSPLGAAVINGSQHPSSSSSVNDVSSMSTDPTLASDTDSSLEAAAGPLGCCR

CDK16 (human) = CDK16 (human) (UniProt Q00536)
Chain of CDK16 (human) (Q00536 whole entry, looked up): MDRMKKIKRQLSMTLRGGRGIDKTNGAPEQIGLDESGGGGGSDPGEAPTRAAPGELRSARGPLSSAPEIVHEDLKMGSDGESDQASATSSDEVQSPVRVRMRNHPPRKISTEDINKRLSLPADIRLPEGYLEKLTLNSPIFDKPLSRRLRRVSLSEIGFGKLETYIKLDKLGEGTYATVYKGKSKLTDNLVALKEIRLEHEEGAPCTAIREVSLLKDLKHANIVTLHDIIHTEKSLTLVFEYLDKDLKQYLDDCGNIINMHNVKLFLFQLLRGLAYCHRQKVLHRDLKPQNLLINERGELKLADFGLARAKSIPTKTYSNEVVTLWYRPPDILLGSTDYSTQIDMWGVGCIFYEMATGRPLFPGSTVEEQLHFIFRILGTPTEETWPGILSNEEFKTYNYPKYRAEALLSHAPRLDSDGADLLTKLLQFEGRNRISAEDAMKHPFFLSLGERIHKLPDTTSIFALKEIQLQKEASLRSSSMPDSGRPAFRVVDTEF

STK11 (human) = STK11 (human) (UniProt Q15831)
MAP3K9 (human) = MAP3K9 (human) (UniProt P80192)
PLK3 (human) = PLK3 (human) (UniProt Q9H4B4)
Chain of PLK3 (human) (Q9H4B4 whole entry, looked up): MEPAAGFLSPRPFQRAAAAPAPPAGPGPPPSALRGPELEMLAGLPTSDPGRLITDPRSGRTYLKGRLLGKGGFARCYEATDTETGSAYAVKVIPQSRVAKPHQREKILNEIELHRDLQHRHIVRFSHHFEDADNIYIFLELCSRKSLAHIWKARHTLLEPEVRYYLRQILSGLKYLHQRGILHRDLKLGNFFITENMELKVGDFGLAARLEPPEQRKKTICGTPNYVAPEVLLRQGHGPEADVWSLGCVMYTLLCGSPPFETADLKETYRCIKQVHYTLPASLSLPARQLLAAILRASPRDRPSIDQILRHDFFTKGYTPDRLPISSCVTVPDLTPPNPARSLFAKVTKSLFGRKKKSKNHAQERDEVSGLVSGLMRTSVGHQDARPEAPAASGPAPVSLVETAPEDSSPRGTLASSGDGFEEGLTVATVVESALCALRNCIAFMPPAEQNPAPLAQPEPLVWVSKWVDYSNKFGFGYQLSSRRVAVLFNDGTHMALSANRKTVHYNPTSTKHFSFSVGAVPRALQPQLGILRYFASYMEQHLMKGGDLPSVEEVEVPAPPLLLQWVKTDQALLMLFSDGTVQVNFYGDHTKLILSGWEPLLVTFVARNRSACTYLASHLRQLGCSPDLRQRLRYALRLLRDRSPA

SGK110 (human) = SGK110 (human) (UniProt P0C264)
Chain of SGK110 (human) (P0C264 whole entry, looked up): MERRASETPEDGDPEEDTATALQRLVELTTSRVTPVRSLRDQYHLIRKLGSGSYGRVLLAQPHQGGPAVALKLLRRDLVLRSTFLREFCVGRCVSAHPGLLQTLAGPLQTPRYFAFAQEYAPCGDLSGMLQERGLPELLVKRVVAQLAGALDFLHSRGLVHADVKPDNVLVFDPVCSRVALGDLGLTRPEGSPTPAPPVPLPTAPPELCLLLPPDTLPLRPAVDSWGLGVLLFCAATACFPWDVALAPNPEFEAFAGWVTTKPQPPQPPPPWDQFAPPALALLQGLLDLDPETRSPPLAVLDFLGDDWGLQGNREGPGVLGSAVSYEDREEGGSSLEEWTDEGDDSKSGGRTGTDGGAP

MAP2K6 (human) = MAP2K6 (human) (UniProt P52564)
MYO3B (human) = MYO3B (human) (UniProt Q8WXR4)
CDC42BPA (human) = CDC42BPA (human) (UniProt Q5VT25)
MAPK14 (human) = MAPK14 (human) (UniProt Q16539)
DCLK1 (human) = DCLK1 (human) (UniProt O15075)
PHKG1 (human) = PHKG1 (human) (UniProt Q16816)
PIM3 (human) = PIM3 (human) (UniProt Q86V86)
PIK3C2B (human) = PIK3C2B (human) (UniProt O00750)
YES1 (human) = YES1 (human) (UniProt P07947)
[2] = test system: KIT (human), P10721 [V559D]
Chain of KIT (human), P10721 [V559D] (P10721 whole entry V559D, looked up): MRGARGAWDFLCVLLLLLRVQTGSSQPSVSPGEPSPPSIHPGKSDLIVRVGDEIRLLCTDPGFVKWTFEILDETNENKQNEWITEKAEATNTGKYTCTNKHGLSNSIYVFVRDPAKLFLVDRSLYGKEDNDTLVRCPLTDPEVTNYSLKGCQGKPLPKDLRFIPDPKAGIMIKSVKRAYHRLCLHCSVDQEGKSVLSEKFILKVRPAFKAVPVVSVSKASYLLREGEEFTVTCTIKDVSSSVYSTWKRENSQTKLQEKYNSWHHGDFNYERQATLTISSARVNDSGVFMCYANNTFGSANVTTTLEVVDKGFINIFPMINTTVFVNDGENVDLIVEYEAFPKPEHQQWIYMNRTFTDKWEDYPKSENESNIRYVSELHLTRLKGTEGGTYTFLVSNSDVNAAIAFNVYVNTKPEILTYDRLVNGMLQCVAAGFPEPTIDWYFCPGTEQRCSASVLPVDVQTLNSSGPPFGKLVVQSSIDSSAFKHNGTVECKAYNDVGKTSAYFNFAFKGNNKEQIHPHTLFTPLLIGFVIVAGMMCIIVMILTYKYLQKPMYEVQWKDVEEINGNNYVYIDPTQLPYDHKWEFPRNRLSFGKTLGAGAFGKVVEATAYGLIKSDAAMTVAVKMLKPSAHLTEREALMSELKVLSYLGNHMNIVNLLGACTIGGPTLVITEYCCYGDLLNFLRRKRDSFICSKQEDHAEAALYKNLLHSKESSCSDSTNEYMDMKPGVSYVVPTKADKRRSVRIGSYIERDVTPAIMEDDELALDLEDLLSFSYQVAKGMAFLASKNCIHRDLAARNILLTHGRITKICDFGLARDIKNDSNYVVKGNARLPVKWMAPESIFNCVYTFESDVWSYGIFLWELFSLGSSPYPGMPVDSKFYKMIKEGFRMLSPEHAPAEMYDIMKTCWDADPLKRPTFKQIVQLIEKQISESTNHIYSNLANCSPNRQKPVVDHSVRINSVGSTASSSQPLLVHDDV

INSRR (human) = INSRR (human) (UniProt P14616)
SRC (human) = SRC (human) (UniProt P12931)
Chain of SRC (human) (P12931 whole entry, looked up): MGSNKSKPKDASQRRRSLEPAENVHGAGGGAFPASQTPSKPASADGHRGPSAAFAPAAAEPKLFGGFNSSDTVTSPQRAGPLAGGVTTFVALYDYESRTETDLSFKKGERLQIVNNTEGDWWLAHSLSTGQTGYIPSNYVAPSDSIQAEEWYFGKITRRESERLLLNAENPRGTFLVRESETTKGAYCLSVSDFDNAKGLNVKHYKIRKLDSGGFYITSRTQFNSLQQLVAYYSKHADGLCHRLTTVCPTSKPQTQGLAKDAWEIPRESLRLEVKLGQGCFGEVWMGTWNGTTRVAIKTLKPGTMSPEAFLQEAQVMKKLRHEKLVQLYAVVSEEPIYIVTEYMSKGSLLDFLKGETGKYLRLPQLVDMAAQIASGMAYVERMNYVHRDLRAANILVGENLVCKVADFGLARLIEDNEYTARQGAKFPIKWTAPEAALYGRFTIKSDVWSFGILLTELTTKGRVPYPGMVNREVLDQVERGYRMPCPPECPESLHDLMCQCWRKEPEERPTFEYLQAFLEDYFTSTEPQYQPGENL

STK17B (human) = STK17B (human) (UniProt O94768)
STK4 (human) = STK4 (human) (UniProt Q13043)
PRKAA1 (human) = PRKAA1 (human) (UniProt Q13131)
NTRK2 (human) = NTRK2 (human) (UniProt Q16620)
MAP3K10 (human) = MAP3K10 (human) (UniProt Q02779)
RIOK2 (human) = RIOK2 (human) (UniProt Q9BVS4)
LATS1 (human) = LATS1 (human) (UniProt O95835)
PIK3CD (human) = PIK3CD (human) (UniProt O00329)
Chain of PIK3CD (human) (O00329 whole entry, looked up): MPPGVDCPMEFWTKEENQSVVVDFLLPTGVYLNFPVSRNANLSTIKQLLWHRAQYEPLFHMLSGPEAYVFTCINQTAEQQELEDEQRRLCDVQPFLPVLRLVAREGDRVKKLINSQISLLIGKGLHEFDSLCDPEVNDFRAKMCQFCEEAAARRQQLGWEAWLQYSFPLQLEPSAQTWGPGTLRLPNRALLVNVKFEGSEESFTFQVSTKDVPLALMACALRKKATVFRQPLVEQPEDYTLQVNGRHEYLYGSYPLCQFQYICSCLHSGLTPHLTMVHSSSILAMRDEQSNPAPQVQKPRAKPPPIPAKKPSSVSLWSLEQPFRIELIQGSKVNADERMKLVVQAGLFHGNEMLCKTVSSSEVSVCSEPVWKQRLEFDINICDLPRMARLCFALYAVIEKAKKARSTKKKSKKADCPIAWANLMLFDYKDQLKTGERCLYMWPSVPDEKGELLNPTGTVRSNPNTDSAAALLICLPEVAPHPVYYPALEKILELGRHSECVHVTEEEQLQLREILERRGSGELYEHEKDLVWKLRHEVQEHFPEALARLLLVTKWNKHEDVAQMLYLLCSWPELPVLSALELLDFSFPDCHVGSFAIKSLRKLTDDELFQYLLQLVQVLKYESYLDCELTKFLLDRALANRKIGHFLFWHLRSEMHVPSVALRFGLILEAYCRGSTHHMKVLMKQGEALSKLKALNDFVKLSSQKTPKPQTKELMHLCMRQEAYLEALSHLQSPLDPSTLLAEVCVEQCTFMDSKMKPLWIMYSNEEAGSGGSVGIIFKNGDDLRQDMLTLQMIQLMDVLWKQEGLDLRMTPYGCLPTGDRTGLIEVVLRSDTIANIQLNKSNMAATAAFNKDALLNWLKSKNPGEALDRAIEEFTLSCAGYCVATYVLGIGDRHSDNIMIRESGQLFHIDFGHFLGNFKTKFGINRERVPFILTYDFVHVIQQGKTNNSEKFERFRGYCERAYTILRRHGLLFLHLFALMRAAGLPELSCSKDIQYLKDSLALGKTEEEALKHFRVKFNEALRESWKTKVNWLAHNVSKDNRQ

SRPK2 (human) = SRPK2 (human) (UniProt P78362)
LIMK2 (human) = LIMK2 (human) (UniProt P53671)
MYLK2 (human) = MYLK2 (human) (UniProt Q9H1R3)
ABL2 (human) = ABL2 (human) (UniProt P42684)
MKNK2 (human) = MKNK2 (human) (UniProt Q9HBH9)

Structure (SMILES) | kinase still bound, per cent of control (ANKK1 (human)) [%] | kinase still bound, per cent of control (TAOK3 (human)) [%] | kinase still bound, per cent of control (NEK7 (human)) [%] | kinase still bound, per cent of control (SLK (human)) [%] | kinase still bound, per cent of control (MAPK9 (human)) [%] | kinase still bound, per cent of control (EPHA8 (human)) [%] | kinase still bound, per cent of control (STK17A (human)) [%] | kinase still bound, per cent of control (CSNK1A1L (human)) [%] | kinase still bound, per cent of control (MAPK8 (human)) [%] | kinase still bound, per cent of control (MAP3K9 (human)) [%] | kinase still bound, per cent of control (PLK3 (human)) [%] | kinase still bound, per cent of control (SGK110 (human)) [%] | kinase still bound, per cent of control (MAP2K6 (human)) [%] | kinase still bound, per cent of control (MYO3B (human)) [%] | kinase still bound, per cent of control (CDC42BPA (human)) [%] | kinase still bound, per cent of control (MAPK14 (human)) [%] | kinase still bound, per cent of control (PHKG1 (human)) [%] | kinase still bound, per cent of control (PIM3 (human)) [%] | kinase still bound, per cent of control (PIK3C2B (human)) [%] | kinase still bound, per cent of control (YES1 (human)) [%] | further results
Nc1ccc(-c2ccc3ncc4ccc(=O)n(-c5cccc(C(F)(F)F)c5)c4c3c2)cn1 | 100 | 80 | 82 | 100 | 89 | 99 | 100 | 89 | 60 | 100 | 94 | 100 | 93 | 87 | 99 | 100 | 100 | 100 | 37 | 100 | kinase still bound, per cent of control [1]: 100%; kinase still bound, per cent of control (CDK16 (human)): 98%; kinase still bound, per cent of control (STK11 (human)): 98%; kinase still bound, per cent of control (DCLK1 (human)): 97%; kinase still bound, per cent of control [2]: 55%; kinase still bound, per cent of control (INSRR (human)): 100%; kinase still bound, per cent of control (SRC (human)): 100%; kinase still bound, per cent of control (STK17B (human)): 89%; kinase still bound, per cent of control (STK4 (human)): 100%; kinase still bound, per cent of control (PRKAA1 (human)): 100%; kinase still bound, per cent of control (NTRK2 (human)): 72%; kinase still bound, per cent of control (MAP3K10 (human)): 100%; kinase still bound, per cent of control (RIOK2 (human)): 70%; kinase still bound, per cent of control (LATS1 (human)): 100%; kinase still bound, per cent of control (PIK3CD (human)): 14%; kinase still bound, per cent of control (SRPK2 (human)): 100%; kinase still bound, per cent of control (LIMK2 (human)): 89%; kinase still bound, per cent of control (MYLK2 (human)): 100%; kinase still bound, per cent of control (ABL2 (human)): 100%
Cc1ccc2nc(NCCN)c3ncc(C)n3c2c1 | 99 | 59 | 100 | 100 | 44 | 100 | 68 | 100 | 66 | 100 | 94 | 100 | 88 | 100 | 85 | 98 | 95 | 92 | 100 | 100 | kinase still bound, per cent of control [1]: 100%; kinase still bound, per cent of control (MKNK2 (human)): 90%; kinase still bound, per cent of control (DCLK1 (human)): 84%; kinase still bound, per cent of control [2]: 23%; kinase still bound, per cent of control (INSRR (human)): 100%; kinase still bound, per cent of control (SRC (human)): 100%; kinase still bound, per cent of control (STK17B (human)): 100%; kinase still bound, per cent of control (STK4 (human)): 100%; kinase still bound, per cent of control (PRKAA1 (human)): 82%; kinase still bound, per cent of control (NTRK2 (human)): 89%; kinase still bound, per cent of control (MAP3K10 (human)): 100%; kinase still bound, per cent of control (RIOK2 (human)): 79%; kinase still bound, per cent of control (LATS1 (human)): 100%; kinase still bound, per cent of control (PIK3CD (human)): 99%; kinase still bound, per cent of control (SRPK2 (human)): 89%; kinase still bound, per cent of control (LIMK2 (human)): 100%; kinase still bound, per cent of control (MYLK2 (human)): 71%; kinase still bound, per cent of control (ABL2 (human)): 100%
O=C(O)c1ccc(Nc2ncc3c(n2)-c2ccc(Cl)cc2C(c2c(F)cccc2F)=NC3)cc1 | 100 | 95 | 100 | 80 | 57 | 99 | 1.9 | 97 | 100 | 70 | 18 | 58 | 72 | 100 | 84 | 93 | 100 | 42 | 93 | 3.9 | kinase still bound, per cent of control (CDK16 (human)): 100%; kinase still bound, per cent of control (STK11 (human)): 92%; kinase still bound, per cent of control (MKNK2 (human)): 84%; kinase still bound, per cent of control [2]: 63%; kinase still bound, per cent of control (INSRR (human)): 100%; kinase still bound, per cent of control (STK17B (human)): 8.6%; kinase still bound, per cent of control (STK4 (human)): 85%; kinase still bound, per cent of control (PRKAA1 (human)): 38%; kinase still bound, per cent of control (NTRK2 (human)): 30%; kinase still bound, per cent of control (MAP3K10 (human)): 67%; kinase still bound, per cent of control (RIOK2 (human)): 99%; kinase still bound, per cent of control (LATS1 (human)): 98%; kinase still bound, per cent of control (PIK3CD (human)): 88%; kinase still bound, per cent of control (SRPK2 (human)): 80%; kinase still bound, per cent of control (LIMK2 (human)): 94%; kinase still bound, per cent of control (MYLK2 (human)): 100%; kinase still bound, per cent of control (ABL2 (human)): 30%
CCCS(=O)(=O)Nc1ccc(F)c(C(=O)c2c[nH]c3ncc(-c4ccc(Cl)cc4)cc23)c1F | 91 | 74 | 100 | 1.4 | 50 | 83 | 62 | 100 | 18 | 52 | 93 | 100 | 57 | 64 | 80 | 70 | 100 | 100 | 100 | 18 | kinase still bound, per cent of control [1]: 55%; kinase still bound, per cent of control (CDK16 (human)): 96%; kinase still bound, per cent of control (STK11 (human)): 75%; kinase still bound, per cent of control (DCLK1 (human)): 88%; kinase still bound, per cent of control [2]: 0.05%; kinase still bound, per cent of control (INSRR (human)): 73%; kinase still bound, per cent of control (SRC (human)): 3.4%; kinase still bound, per cent of control (STK17B (human)): 88%; kinase still bound, per cent of control (STK4 (human)): 11%; kinase still bound, per cent of control (PRKAA1 (human)): 89%; kinase still bound, per cent of control (NTRK2 (human)): 78%; kinase still bound, per cent of control (MAP3K10 (human)): 73%; kinase still bound, per cent of control (RIOK2 (human)): 100%; kinase still bound, per cent of control (LATS1 (human)): 100%; kinase still bound, per cent of control (PIK3CD (human)): 89%; kinase still bound, per cent of control (SRPK2 (human)): 100%; kinase still bound, per cent of control (LIMK2 (human)): 24%; kinase still bound, per cent of control (MYLK2 (human)): 18%; kinase still bound, per cent of control (ABL2 (human)): 32%
